# Measurements: patent publication US4110321A, “Synthetic tridecapeptide [Gln^4 ]-neurotensin having hormonal activity” (priority 1977, dated 1978)
# Where no end group is shown, it is not given here.
# Legend:
# [1] = system: anesthetized dogs; experiment: Heart, blood flow, blood glucose and lipolysis in anesthetized dogs; format: in vivo, dog
# Excerpt: [Gln^4 ]-neurotensin ([Gln]^4 -NT) has also been studied on the heart and on the blood from in subcutaneous adipose tissue, skin, and small intestine in anesthetized dogs. In addition, its possible action has been investigated on blood glucose concentration and lypolysis in subcutaneous adipose tissue.
# [2] = system: rats; experiment: Hyperglycemic Assay; format: in vivo, rat; settings: 15 minutes after injection
# Experimental: Rats weighing 100-125 g were anesthetized with pentobarbital (50 mg/kg). The test samples were dissolved in 0.85% saline and administered via a tail vein. Each animal was killed by decapitation 15 minutes after injection and plasma glucose levels were measured by the method of Ceriotti and Frank. […] The plasma glucose values are given in mg %.
# [3] = system: guinea pig ileum; experiment: Contraction of Guinea Pig Ileum; settings: ileum segments in Tyrode's solution at 37°
# Experimental: Freshly dissected segments of guinea pig ileum were suspended in a 40 ml bath which was maintained at 37° and serated with a mixture of O2 --CO2 (95:5), and containing Tyrode's solution.
# [4] = system: rats; experiment: Hypotensive Assay; format: in vivo, rat; settings: rats anesthetized with pentobarbital; 50 picomoles/100 g body weight via tail vein
# Experimental: Systemic blood pressure was measured with a Hewlett-Packard recorder and pressure transducer (preamplifier 8805 B, recorder 7782 A, transducer 267 BC) following cannulations of the carotid artery in rats weighing 200-250 g and anesthetized with pentobarbital (50 mg/kg). The test samples were dissolved in 0.85% saline and administered via a tail vein.
# [5] = system: rabbit anti-NT serum; experiment: Radioimmunoassay; format: binding; settings: I^125 -NT, two rabbit antisera, pH 7.4, 4° C.
# Experimental: Two antisera were used in these assays. One has been characterized as being directed solely toward the COOH-terminus, and the other requires most of the molecule.
# The radioimmunoassay method used was an equilibrium system carried out at pH 7.4 in 10 × 75 mm disposable flint glass tubes and employing PBS-gel as diluent. […] The mixtures were allowed to stand at 4° C. for 18-24 hours. The "bound" (B) and "free" (F) trace were separated at 4° C. by the rapid addition of 1.0 ml of a 1:4 dilution of a stock suspension of charcoal (2.5%) and dextran T-70 (0.25%) in PBS to each tube. The tubes were immediately centrifuged for 20 min at 2000 rpm (PRJ-Universal), and the supernatant fluids were decanted into new tubes. […] "Damage" was usually 2-4% and using antisera at a final dilution of 1:10,000 gave 50-70% binding. All unknowns were assayed in duplicate at three dilutions so as to span the sensitive portion of the curve. The results were obtained by averaging the concentrations determined at each dilution provided that they agreed within 20%.
# [6] = Simulation of isolation steps: stability in acetone 1 N HCl at 37° C.; format: physicochemical
# Experimental: Toward simulation of these isolation steps, both in terms of temperature and the concentration of hydrochloric acid, 2 mg of synthetic [Gln^4 ]-neurotensin was dissolved in a mixture of acetone 1 N HCl (100:3 v/v), and this solution was maintained at 37° C. for 12 hours which can be presumed to be less than the time of the original large scale operation at the New England Enzyme Center in Boston. An aliquot of the solution was taken for thin layer electrophoresis on cellulose plates (160 microns, Eastman Chromatographic sheet) at 500 volts in pyridine-acetate buffer, pH 6.5. The major spot on the plate corresponded to [Gln^4 ]-neurotensin.However, a new and minor spot moving toward the cathode was present which had the same TLC retention time as neurotensin. The solution was allowed to stand overnight, and it was then maintained again at 37° for a second 12-hr period. […] The minor spot had increased during the second 12-hr period. The remaining solution was concentrated under reduced pressure at room temperature to remove acetone, and the aqueous residue was then lyophilized. The residual white powder was subjected to thin layer electrophoresis on cellulose plates and pyridine acetate buffer at pH 6.5 and at 500 volts. […] The Rf values were identical with those of an authentic specimen of [Gln^4 ]-neurotensin as follows: Rf^1 0.25; Rf^2 0.89; Rf^3 0.50; Rf^4 0.42; Rf^5 0.21; and Rf^6 0.98.
# In the second experiment 10 mg of pure [Gln^4 ]-neurotensin was dissolved in a mixture of acetone 1 N HCl (100:3 v/v), and the solution was maintained at 37° C. for 27 hours to simulate again the steps of isolation which are being critiqued. This time, 3 spots were observed on electrophoretic analysis of an aliquot of the solution which had been maintained at 37° for 27 hrs. Preparative thin layer electrophoresis, extraction, and workup yielded 4.2 mg of recovered [Gln^4 ]-neurotensin and 4.3 mg of neurotensin. The third and much weaker spot was due to only a trace amount of another peptide which presumably resulted from further hydrolysis. […] The fact that in these two experiments, not all of the [Gln^4 ]-neurotensin was converted to neurotensin is relatively unimportant, because these experiments on hydrolysis of the pure [Gln^4 ]-neurotensin only simulates the conditions of processing of 20-45 kg of hypothalamic tissue.
# [7] = system: canine fundic, antral and intestinal pouches; experiment: Spontaneous motor activity in isolated canine fundic, antral and intestinal pouches; format: in vivo, dog; settings: intravenous infusion for 30 min
# Experimental: The action of [Gln^4 ]-neurotensin was tested on the spontaneous motor activity in isolated canine fundic, antral and intestinal pouches. All of these pouches had been prepared more than 6 months prior to the testing. […] The gastro-intestinal tract appears to be the principal target organ for [Gln^4 ]-neurotensin, and is a basis for clinical use of [Gln^4 ]-neurotensin in patients having diseases of gastroenterology (S. Andersson, M.D. S. Rosell M.D., U. Hjelmquist M.D., D. Chang Ph.D. and K. Folkers Ph.D., Gastroenterology, in press).
# [8] = 10 mg in acetone 1 N HCl (100:3 v/v), 27 hours
Compound,action in the peripheral vasculature ([1]; anesthetized dogs),"Hyperglycemic Assay, plasma glucose ([2]; 25 picomoles/100 g body weight via tail vein) [mg %]","Hyperglycemic Assay, plasma glucose ([2]; 50 picomoles/100 g body weight via tail vein) [mg %]","Hyperglycemic Assay, plasma glucose ([2]; 100 picomoles/100 g body weight via tail vein) [mg %]","Contraction of Guinea Pig Ileum, potency [3]",-ΔSystemic Blood Pressure [4] [mm HG],blood glucose concentration ([1]; anesthetized dogs),cardiac action ([1]; anesthetized dogs),"action in the peripheral vasculature ([1]; anesthetized dogs, listed as [Gln]^4 -NT)",lipid metabolism in adipose tissue ([1]; subcutaneous adipose tissue),"% Cross Ractivity (Ab #4, #6) [5]","recovered [Gln^4 ]-neurotensin ([6]; 2 mg in acetone 1 N HCl (100:3 v/v), two 12-hr periods)","neurotensin formed [6, 8] [mg]","recovered [Gln^4 ]-neurotensin [6, 8] [mg]",stability under the isolation conditions ([6]; acetone 1 N HCl (100:3 v/v)),"dose inducing significant motor inhibition, vagally innervated antral pouches [7] [ng/kg/min]","dose inhibiting motor activity, vagally denervated fundic pouches [7]"
"Substance P (RPKPQQFFGLM-NH2; UniProt P20366 58-68, looked up) [another polypeptide extracted from the hypothalamus, reference compound]",hypotension and pronounced vasodilation and no vasoconstrictor or metabolic actions,–,–,–,–,–,–,–,–,–,–,–,–,–,–,–,–
CC[C@H](C)[C@H](NC(=O)[C@H](Cc1ccc(O)cc1)NC(=O)[C@@H]1CCCN1C(=O)[C@H](CCCNC(=N)N)NC(=O)[C@H](CCCNC(=N)N)NC(=O)[C@@H]1CCCN1C(=O)[C@H](CCCCN)NC(=O)[C@H](CC(N)=O)NC(=O)[C@H](CCC(N)=O)NC(=O)[C@H](Cc1ccc(O)cc1)NC(=O)[C@H](CC(C)C)NC(=O)[C@@H]1CCC(=O)N1)C(=O)N[C@@H](CC(C)C)C(=O)O [[Gln^4]-NT],delayed vasoconstriction which is prominent is subcutaneous adipose tissue,15±5,34±4,116,about equivalent potency,42 ± 8,increased blood glucose concentration,no cardiac action,both vasodilator and vasoconstrictor actions,no evidence of a change in lipid metabolism in adipose tissue,90-100%,About 1 mg,4.3,4.2,hydrolyzed or converted to neurotensin,6.3,above 25 ng × kg^-1 × min^-1
